Test results taken from PMC12456999, “Sulfonyl Homoserine Lactones Are Tunable Probes to Inhibit the Quorum Sensing Receptor RhlR and Reduce Swarming Motility in Pseudomonas aeruginosa” (ACS Infectious Diseases, 2025).
Like-named read-outs stand apart in the source and are kept apart here.

Key:
[1] = target: T1, RhlR (Pseudomonas aeruginosa, UniProt P54292); assay: P. aeruginosa PA14 ΔrhlIΔlasI RhlR GFP reporter antagonism assay; format: cell-based; conditions: for Max Inhibition (RhlR): P. aeruginosa PA14 ΔrhlIΔlasI, against 4 μM BHL with 10 μM OdDHL, highest concentrations tested
T1 construct: expressed in transfected cells; host or cells: E. coli JLD271 (K-12 ΔlacX74 sdiA271::Cam) carrying pJN105-R2 (RhlR expression) and pSC11-rhlI (rhlI'-lacZ reporter)
Experimental: We were interested in determining whether these new RhlR antagonists identified in an E. coli RhlR reporter maintained their activity in the native organism, P. aeruginosa. […] Antagonism of RhlR was measured in the presence of BHL and OdDHL (the latter signal was needed to induce the production of RhlR via LasR). […] The reasons for this reduction in activity are likely multifold, but we believe that they may stem from the low permeability of P. aeruginosa to small molecules, its lower (native) level of RhlR expression, its abundance of efflux pumps, and/or the cross-interaction of compounds with other targets (LasR, QscR, and potentially others) that then regulate RhlR. […] Nevertheless, these reporter data for sulfonyl HLs 39, 43, 59, and 75 in P. aeruginosa indicate that these compounds are capable of antagonizing RhlR activity in the native host.
RhlR activity in E. coli strain JLD271 (ΔsdiA) was measured via a β-galactosidase reporter (rhI-lacZ) using the Promega Beta-Glo Assay System as previously described. RhlR activity in P. aeruginosa PA14 (ΔrhlIΔlasI) was measured via a GFP reporter (rhlA-gfp). […] See Supporting Information for both reporter protocols.
Supporting Information — Aguirre-Figueroa et al.
P. aeruginosa RhlR reporter assay. RhlR activity in P. aeruginosa PA14 ΔrhlIΔlasI was measured via a GFP reporter. Briefly, a single colony of P. aeruginosa strain PA14 ΔrhlIΔlasI harboring the transcriptional fusion reporter pPROBE-GT rhlA-GFP (Table S1) was grown in LB medium with 40 μg/mL gentamicin overnight (~20 h). The culture was diluted 1:100 in fresh LB medium, without antibiotic, to an OD600 = 0.25 (0.22–0.30) (~1 h). Aliquots (2 μL) of compound DMSO stock solution or serial dilution were added to the inner wells (i.e., non-periphery rows) of a black, clear bottom 96-well plate. To 12 inner wells, DMSO alone (vehicle) was added to serve as controls (negative and positive). For the six negative control wells (no BHL), 198 μL of bacterial culture plus OdDHL (to achieve 10 μM) were added. For the six positive control wells (no test compound), 198 μL of bacterial culture plus OdDHL (10 μM) and BHL (to achieve 4 μM) were added. To all the remaining wells containing test compound, 198 μL of bacterial culture plus OdDHL (10 μM) and BHL (4 μM) were added. Water (200 μL) was added to the outer (periphery) wells to maintain humidity during incubation. Plates were incubated for 4 h at 37 °C. After incubation, the OD600 and GFP production (excitation at 500 nm, emission at 540 nm) were read for each well using a plate reader. To determine levels of RhlR activity, raw GFP production was divided by OD600 to correct for growth variation and then normalized to the negative (0%) and positive (100%) control wells.
Dose-response reporter assay data for compounds in the P. aeruginosa RhlR reporter.
Dose-response curves for RhlR agonism by BHL and for RhlR antagonism by selected compounds against 4 μM BHL using the P. aeruginosa PA14 RhlR reporter are provided below. Compound names are indicated on the x-axis of each plot. All assays performed in triplicate as at least three separate biological replicates. Error bars indicate SD of n = 3 trials. Curve fits generated using GraphPad Prism software (v9.0) using a variable slope sigmoidal curve fit. IC50 values for antagonists […]
Max Inhibition = 47% Max Inhibition = 59%
Max Inhibition = 49% Max Inhibition = 67%
(also on this page, place not known: % Activity % Activity % Activity % Activity % Activity)

[2] = tested on: bacterial growth; assay: Effect on bacterial growth (OD600 over time); format: cell-based; conditions: at >2 mM concentrations
Experimental: All new compounds were fully characterized for purity and identity (see Supporting Information). […] The remaining compounds had no effect on growth over the concentration range tested. All compounds were tested in bacteriological assays in triplicate and in at least three separate trials using unique cultures. IC50 and EC50 values in reporter assays were calculated using GraphPad Prism software (version 9.0) with a variable slope sigmoidal curve fit.

T1 sequence (P54292 whole entry): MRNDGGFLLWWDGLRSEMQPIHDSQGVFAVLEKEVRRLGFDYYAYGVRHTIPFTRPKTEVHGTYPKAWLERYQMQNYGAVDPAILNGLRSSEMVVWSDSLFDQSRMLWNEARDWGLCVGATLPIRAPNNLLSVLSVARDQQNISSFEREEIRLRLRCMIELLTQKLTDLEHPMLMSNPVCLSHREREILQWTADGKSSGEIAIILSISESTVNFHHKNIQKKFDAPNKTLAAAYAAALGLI

**Q.** `O=C1OCC[C@@H]1NS(=O)(=O)c1cccc(Br)c1` [Compound 39, 3-bromo BSHL] was tested. Which IC50 [1] did it give?
**A.** > 1000 µM

**Q.** And the “Max Inhibition (RhlR)” value [1]?
**A.** 47%

**Q.** And the “effect on bacterial growth” value [2]?
**A.** modest effect on bacterial growth

**Q.** Which IC50 [1] does the source give for `O=C1OCC[C@@H]1NS(=O)(=O)c1ccc(Cl)c(Cl)c1` [Compound 43, 3,4-di-Cl BSHL] here?
**A.** > 1000 µM

**Q.** And the “Max Inhibition (RhlR)” value [1]?
**A.** 59%

**Q.** And the “effect on bacterial growth” value [2]?
**A.** modest effect on bacterial growth

**Q.** Which results are given for `O=C1OCC[C@@H]1NS(=O)(=O)c1ccc(F)c(F)c1` [Compound 59, 3,4-di-F BSHL]?
**A.** IC50 [1]: > 1000 µM; Max Inhibition (RhlR) [1]: 49%

**Q.** For `CCCCCS(=O)(=O)N[C@H]1CCOC1=O` [Compound 75, C5 ASHL], which IC50 ([1]; P. aeruginosa PA14 ΔrhlIΔlasI RhlR reporter) is on record?
**A.** > 1000 µM

**Q.** What about the “Max Inhibition (RhlR)” value [1] of the same compound?
**A.** 67%
